Target: T1, HIV protease (Human immunodeficiency virus type 1 group M subtype B, UniProt P04585)
T1 construct: and purified protease
Experiment: HIV Protease Assay
Assay type: biochemical
Conditions: 4% DMSO, 450 μM substrate, pH 5.5, 30 minutes at 37° C., RP-HPLC; for inhibition at 10 µM: pH 5.5, 10 μM inhibitor, read-out: HIV Protease % Inhibition at 10 μM; for HIV Protease % Inhibition at 10 μM: 10 μM inhibitor
Procedure: An HIV protease standard assay was performed in a 60 μl reaction medium containing 50 mM sodium acetate, pH 5.5, 100 μg/ml bovine serum albumen,450 μM substrate (H2 N-Val-Ser-Gln-Asn-(β-naphthyl-alanine)-Pro-Val-Ile-OH), and purified protease. The reaction medium was incubated for 30 minutes at 37° C., quenched by the addition of 140 μl 5% H3 PO4, then analyzed by reverse phase HPLC using UV220 detection. In a typical control assay, 7% of the substrate was hydrolyzed. Aminediol inhibitors of the present invention, listed in the following Table 1, were then employed in the assay, for which purpose they were prepared as a […] solution in DMSO, then diluted to 30 μM with 50 mM sodium acetate/bovine serum albumen. This working stock was then diluted three-fold into the protease reaction medium, for a final concentration of 10 μM inhibitor and 4% DMSO.

Row | SMILES | inhibition at 10 µM | HIV Protease % Inhibition at 10 μM
1 | CC(C)(C)OC(=O)N[C@@H](Cc1ccccc1)[C@H](O)CNC[C@@H](O)[C@H](Cc1ccccc1)NC(=O)OCc1nc2ccccc2[nH]1 [Compound 289, [R-(R*,S*)]-[Iminobis[2-hydroxy-1-(phenylmethyl)-3,1-propanediyl)]biscarbamic acid, (1H-benzimidazol-2-yl)methyl 1,1-dimethylethyl ester] | 53% | –
2 | CC(C)(C)OC(=O)N[C@@H](Cc1ccccc1)[C@H](O)CN[C@H](Cc1ccccc1)[C@@H](O)CNC(=O)OCc1ccccc1 [Compound 185, [2S-[2R*,3S*(2S*,3R*)]]-[3-[[3-[[(1,1-Dimethylethoxy)carbonyl]amino-2-hydroxy-4-phenylbutyl]amino-2-hydroxy-4-phenylbutyl]carbamnic acid, phenylmethyl ester] | 5% | –
3 | CC(C)(C)OC(=O)N[C@@H](Cc1ccccc1)[C@H](O)CNC[C@@H](O)[C@H](Cc1ccc(OCCN2CCOCC2=O)cc1)NC(=O)OC(C)(C)C [Compound 380, [1S-[1R*, 2S*(2S*, 3R*)]]-[3-[[3-[[(1,1-Dimethylethoxy)carbonyl]amino]-2-hydroxy-4-[4-[2-(3-oxo-4-morpholinyl)ethoxy]phenyl]-butyl]amino]-2-hydroxy-1-(phenylmethyl)propyl]-carbamic acid, 1,1-dimethylethyl ester] | 97% | –
4 | CC(C)(C)OC(=O)N1CCC[C@H]1[C@H](O)CNC[C@H](O)[C@@H]1CCCN1C(=O)OC(C)(C)C [Compound 8, [S-(R*,R*)]-2-[2-[[[S-(R*,S*)]-2-[1-[(1,1-Dimethylethoxy)carbonyl]-pyrrolidinyl]-2-hydroxyethyl]amino]-hydroxyethyl]-1-pyrrolidine-carboxylic acid, (1,1-dimethylethyl) ester] | 2% | –
5 | CC(C)(C)OC(=O)N[C@@H](Cc1ccccc1)[C@H](O)CNC[C@@H](O)[C@H](Cc1ccccc1)NC(=O)C1c2ccccc2CC1O (stereo partly drawn) [Compound 237, [1S-[1R*,2S*[2S*,3R*(trans)]]]-[3-[[3-[[(2,3-Dihydro-2-hydroxy-1H-inden-1-yl)carbonyl]amino]-2-hydroxy-4-phenylbutyl]amino]-2-hydroxy-1-(phenylmethyl)propyl]carbamic acid, 1,1-dimethylethyl ester] | 54% | –
6 | CC(C)(C)OC(=O)N[C@@H](Cc1ccccc1)[C@H](O)CNC[C@@H](O)[C@H](Cc1ccccc1)NC(=O)C1NC(=O)OC1(C)C (single isomer, unassigned; isomer a) [Compound 239, [1S-[1R*,2S*(2S*,3R*)]]-[3-[[3-[[(5,5-Dimethyl-2-oxo-4-oxazolidinyl)carbonyl]amino]-2-hydroxy-4-phenylbutyl]amino]-2-hydroxy-1-(phenylmethyl)propyl]carbamic acid, 1,1-dimethylethyl ester, isomer A] | – | 37%
7 | CC(C)(C)OC(=O)N[C@@H](Cc1ccccc1)[C@H](O)CNC[C@@H](O)[C@H](Cc1ccccc1)NC(=O)OC(CO)c1cccnc1 (stereo partly drawn) [Compound 277, [R-(R*,S*)]-[Iminobis[2-hydroxy-1-(phenylmethyl)-3,1-propanediyl)]biscarbamic acid, 1,1-dimethylethyl-2-hydroxy-1-(3-pyridinyl)ethyl ester] | 67% | –
8 | CC(C)(C)OC(=O)N[C@@H](Cc1ccccc1)[C@H](O)CNC[C@@H](O)[C@H](Cc1ccccc1)NC(=O)C(C)(C)C [Compound 269, [1S-[1R*,2S*(2S*,3R*)]]-[3-[[3-[(2,2-Dimethyl-1-oxo-propyl)amino]-2-hydroxy-4-phenylbutyl]amino]-2-hydroxy-1-(phenylmethyl)propyl]carbamic acid, 1,1-dimethylethyl ester] | 61% | –
9 | CC(C)(CO)OC(=O)N[C@@H](Cc1ccccc1)[C@H](O)CNC[C@@H](O)[C@H](Cc1ccccc1)NC(=O)C1(O)CCCC1(C)C (single isomer, unassigned; isomer b) [Compound 369, [1S-[1R*,2S*(2S*,3R*)]]-[r3-[[3-[[(2,2-Dimethyl-1-hydroxycyclopentyl)-carbonyl]amino]-2-hydroxy-4-phenylbutyl]amino]-2-hydroxy-1-(phenylmethyl)propyl]carbamic acid, 2-hydroxy-1,1-dimethylethyl ester. isomer B] | – | 96%
10 | CC(C)(C)OC(=O)N[C@@H](Cc1ccccc1)[C@H](O)CNC[C@@H](O)[C@H](Cc1ccccc1)NC(=O)C(=NO)C(C)(C)C [Compound 295, [1S-[1R*,2S*(2S*,3R*)]]-[2-Hydroxy-3-[[2-hydroxy-3-[[2-(hydroxyimino)-3,3-dimethyl-1-oxobutyl]amino]-4-phenylbutyl]amino]-1-(phenylmethyl)propyl]carbamic acid, 1,1-dimethylethyl ester] | 82% | –
11 | CC(C)(C)OC(=O)N[C@@H](Cc1ccccc1)[C@H](O)CNC[C@@H](O)[C@H](Cc1ccccc1)NC(=O)C(C)(O)c1ccccn1 (single isomer, unassigned; isomer a) [Compound 381, [1S-[1R*,2S*(2S*, 3R*)]]-[2-Hydroxy-3-[[2-hydroxy-3-[[2-hydroxy-1-oxo-2-(2-pyridinyl)propyl]amino]-4-phenylbutyl]amino]-1-(phenylmethyl)propyl]carbamic acid, 1.1-dimethylethyl ester, isomer A] | – | 60%

Other lines, results leading:

Row | inhibition at 10 µM | HIV Protease % Inhibition at 10 μM | SMILES
12 | – | 72% | CC(C)(C)OC(=O)N[C@@H](Cc1ccccc1)[C@H](O)CNC[C@@H](O)[C@H](Cc1ccccc1)NC(=O)C1(O)COCC1(C)C (single isomer, unassigned; isomer b) [Compound 365, [1S-[1R*,2S*(2S*,3R*)]]-[2-Hydroxy-3-[[tetrahydro-3-hydroxy-4,4-dimethyl-3-furanyl)carbonyl]amino]-4-phenylbutyl]amino]-l-(phenylmethyl)-propyl]carbamic acid, 1,1-dimethylethyl ester, Isomer B]
13 | – | 66% | CC(C)(C)OC(=O)N[C@@H](Cc1ccccc1)[C@H](O)CNC[C@@H](O)[C@H](Cc1ccccc1)NC(=O)OC1c2ccccc2CC1O (stereo partly drawn) [Compound 215, [1S-(1R*,2S*)(trans)]-[Iminobis[2-hydroxy-1-(phenylmethyl)-3,1-propanediyl)]biscarbamic acid, 1,1-dimethylethyl 2,3-dihydro-2-hydroxy-1H-inden-1-yl ester]
14 | 96% | – | C=Cc1ccccc1C[C@H](NC(=O)OC(C)(C)C)[C@H](O)CNC[C@@H](O)[C@H](Cc1ccccc1)NC(=O)OC(C)(C)C [Compound 370, [1S-[1R*,2S*(2S*, 3R*)]]-[3-[[3-[[(1,1-Dimethylethoxy)carbonyl]amino]-2-hydroxy-4-(2-ethenylphenyl)butyl]amino]-2-hydroxy-1-(phenylmethyl)propxyl]carbamic acid, 1.1-dimethylethyl ester]
15 | 13% | – | CC(C)(C)OC(=O)NCC(O)(CNC[C@@H](O)[C@H](Cc1ccccc1)NC(=O)OC(C)(C)C)Cc1ccccc1 (stereo partly drawn) [Compound 191, [1S-(1R*,2S*)]-[3-[[3-[[(1,1-Dimethylethoxy)carbonyl]amino]-2-hydroxy-2-(phenylmethyl)propyl]amino]-2-hydroxy-1-(phenylmethyl)propyl]carbamic acid, 1,1-dimethyl-ethyl ester]
16 | 41% | – | CC(C)(C)OC(=O)N[C@@H](Cc1ccccc1)[C@H](O)CNC[C@@H](O)[C@H](Cc1ccccc1)N[S+]([O-])C(C)(C)C (stereo partly drawn) [Compound 182, [1S-[1R*,2S*(2S*,3R*)]]-[3-[[(1,1-Dimethylethyl)-sulfinyl]amino-2-hydroxy-4-phenylbutyl]amino]2-hydroxy-1-(phenylmethyl)propyl]carbamic acid, 1,1-dimethylethyl ester]
17 | 57% | – | CC(C)(C)OC(=O)N[C@@H](Cc1ccccc1)[C@H](O)CNC[C@@H](O)[C@@H](Cc1ccccc1)NC(=O)OC(C)(C)C [Compound 26i, [1R-[1R*,2R*(2R*,3S*)]]-3-[[3-[[(1,1-Dimethylethoxy)carbonyl]amino]-2-hydroxy-4-phenylbutyl]amino]-2-hydroxy-1-(phenylmethyl)propyl]carbamic acid, 1,1-dimethylethyl ester]
18 | 98% | – | CC(C)(C)OC(=O)N[C@@H](Cc1ccccc1)[C@H](O)CNC[C@@H](O)[C@H](Cc1ccccc1)NC(=O)OC1(C)CCCC1O (stereo partly drawn) [Compound 379, [1S-(1R*,2S*) (trans)]-[Iminobis[2-hydroxy-1-(phenylmethyl)-3,1-propanediyl]]bis[carbamic acid], 1,1-dimethylethyl 2-hydroxy-1-methylcyclopentyl ester]
19 | 23% | – | CC(C)(C)OC(=O)N[C@@H](Cc1ccccc1)[C@H](O)CN[C@H](Cc1ccccc1)[C@H](O)CNC(=O)OCc1ccccc1 [Compound 189, [2R-[2R*,3R*(2R*,3S*)]]-[3-[[3-[[(1,1-Dimethylethoxy)carbonyl]amino]-2-hydroxy-4-phenylbutyl]amino]-2-hydroxy-4-phenylbutyl]-carbamic acid, phenylmethyl ester]
20 | 47% | – | CC(C)(C)OC(=O)N[C@@H](Cc1ccccc1)[C@H](O)CNC[C@@H](O)[C@H](Cc1ccccc1)NC(=O)[C@@H]1CCCN1C(=O)OCc1ccccc1 [Compound 102, [S-[1R*,2S*(2S*,3R*)[]-N-[[[3-[[3-[[(1,1-Dimethylethoxy)carbonyl]amino]-2-hydroxy-4-phenylbutyl]amino]-2-hydroxy-1-(phenylmethyl)-propyl]-N^2-[phenylmethoxy)carbonyl]-L-prolinamide]
